From patent publication US5130462A, “Cyclobutane derivatives” (E. R. Squibb & Sons, Inc., priority 1991, dated 1992)

Tests used:
HCMV = HCMV plaque reduction assay in WI-38 cells; format: cell-based, human cytomegalovirus, strain AD 169; conditions: Human betaherpesvirus 5, 6-7 days, 37° C, read-out: ID50 HCMV
Protocol: (§1) Assays were performed in cell culture systems to determine the concentrations of compounds that are effective in preventing several kinds of viral infections.
(§2) HSV-1 (herpes simplex virus type 1, strain Schooler), HSV-2 (herpes simplex virus type 2, strain 186), VZV (varicella zoster virus, strain ELLEN), HCMV (human cytomegalovirus, strain AD 169), MuLV (murine leukemia virus, strain CAS), HIV (human immunodeficiency virus, strain HTLV-IIIB).
(§3) HSV-1, HSV-2, HCMV, and VZV antiviral assays: Virus was adsorbed to WI-38 cell culture monolayers in 6 well culture plates (Costar, Cambridge, Mass.) for 1 hour prior to addition of maintenance medium containing duplicate dilutions of the test compound. Inhibition of plaque development was evaluated on fixed and stained monolayers after 4 days incubation at 37° C. for HSV-1 and HSV-2 and after 6-7 days incubation at 37° C. for HCMV and VZV. ID50 values were determined from the drug concentration which conferred at least a 50% plaque reduction compared to virus controls.

HSV-2 = HSV-2 plaque reduction assay in WI-38 cells; format: cell-based, herpes simplex virus type 2, strain 186; conditions: Human alphaherpesvirus 2, WI-38, 96 h, read-out: ID50 HSV-2
Protocol: as §1, §2, §3

HIV = HIV antiviral assay, inhibition of CPE in CEM cells (XTT-PMS); format: cell-based, strain HTLV-IIIB; conditions: Human immunodeficiency virus 1, CCRF-CEM, 168 h, 7 days, read-out: ID50 HIV
Protocol: as §1, §2
HIV antiviral assay: Suspensions of CEM(Nara and Fischinger, Nature, 332:469, 1988) cells were infected at a multiplicity of infection (e.g. virus/cell) of 0.12 with HIV (strain HTLV-III B). […] Following incubation, viable cell numbers were counted in each well using a colorimetric assay following incubation of cells with XTT-PMS solution (XTT tetrazolium reagent plus phenazine methosulfate PMS).
Percent reduction of viral cytopathic effect (CPE) in drug treated compared to untreated virus infected cells, and percent reduction of cell viability in drug treated uninfected cells compared to untreated controls were calculated and plotted versus the drug concentrations tested. From these plots, the IDso (the minimum drug concentration that inhibits CPE by 50%) for each drug was calculated.

VZV = VZV plaque reduction assay in WI-38 cells; format: cell-based, varicella zoster virus, strain ELLEN; conditions: Human alphaherpesvirus 3, 6-7 days, 37° C, read-out: ID50 VZV
Protocol: as §1, §2, §3

Compound | IC50 (HCMV) [µM] | IC50 (HSV-2) [µM] | IC50 (HIV) [µM] | IC50 (VZV) [µM]
O=c1[nH]c(=O)n([C@H]2C[C@@H](CO)[C@@H]2CO)cc1/C=C/Br (relative stereo) [[1α(E),2β,3α]-1-[2,3-Bis(hydroxymethyl)-cyclobutyl]-5-(2-bromoethenyl)-2,4(1H,3H)-pyrimidinedione] | > 302 | > 302 | – | –
O=c1[nH]c(=O)n([C@H]2C[C@@H](CO)[C@@H]2CO)cc1I (relative stereo) [(1α,2β,3α)-1-[2,3-Bis(hydroxymethyl)cyclobutyl]-5-iodo-2,4(1H,3H)-pyrimidinedione] | > 284 | > 284 | – | –
Nc1ncnc2c1ncn2[C@H]1C[C@@H](CO)[C@@H]1CO (relative stereo) [(1α,2β,3α)-3-(6-Amino-9H-purin-9-yl)-1,2-cyclobutanedimethanol] | – | – | 6.8 | –
Nc1nc2c(nnn2[C@H]2C[C@@H](CO)[C@@H]2CO)c(=O)[nH]1 (relative stereo) [(1α,2β,3α)-5-Amino-3-[2,3-bis(hydroxymethyl)cyclo-butyl]-3,6-dihydro-7H-1,2,3-triazolo[4,5-d]-pyrimidin-7-one] | – | – | – | 3.8 to 38
Nc1nc2c(ncn2[C@H]2C[C@@H](CO)[C@@H]2CO)c(=O)[nH]1 (relative stereo) [(1α,2β,3α)-9-[2,3-Bis(hydroxymethyl)cyclobutyl]guanine] | – | – | 30 | –
